From PubChem BioAssay AID2060495 (Molecular Pharmacology Branch, DTP, NCI, 2025)

System: 521955-158-R2-J5-PDC complex spheroid viability
Experiment: Anticancer human tumor 521955-158-R2-J5-PDC patient-derived pancreatic carcinoma cell line growth inhibition [GQUAD]
Conditions: for IC50: curve of first compound; for viability, T/C: stronger effect = lower value
Method in brief: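 Viability of tumor cells grown as complex spheroids with endothelial and stromal cells, exposed to drug combinations. Top concentration at or near clinical Cmax (else 10 microM), diluted in half-log increments.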

[1] = second compound 0.0316 µM, first compound 0.0316 µM
[2] = second compound 0.0316 µM, first compound 0.1 µM
[3] = second compound 0.0316 µM, first compound 0.316 µM
[4] = second compound 0.0316 µM, first compound 1 µM
[5] = second compound 0.0316 µM, first compound 3.16 µM
[6] = second compound 0.0316 µM, first compound 10 µM
[7] = second compound 0.1 µM, first compound 0.0316 µM
[8] = second compound 0.1 µM, first compound 0.1 µM
[9] = second compound 0.1 µM, first compound 0.316 µM
[10] = second compound 0.1 µM, first compound 1 µM
[11] = second compound 0.1 µM, first compound 3.16 µM
[12] = second compound 0.1 µM, first compound 10 µM
[13] = second compound 0.316 µM, first compound 0.0316 µM
[14] = second compound 0.316 µM, first compound 0.1 µM
[15] = second compound 0.316 µM, first compound 0.316 µM
[16] = second compound 0.316 µM, first compound 1 µM
[17] = second compound 0.316 µM, first compound 3.16 µM
[18] = second compound 0.316 µM, first compound 10 µM
[19] = second compound 1 µM, first compound 0.0316 µM
[20] = second compound 1 µM, first compound 0.1 µM
[21] = second compound 1 µM, first compound 0.316 µM
[22] = second compound 1 µM, first compound 1 µM
[23] = second compound 1 µM, first compound 3.16 µM
[24] = second compound 1 µM, first compound 10 µM
[25] = second compound 3.16 µM, first compound 0.0316 µM
[26] = second compound 3.16 µM, first compound 0.1 µM
[27] = second compound 3.16 µM, first compound 0.316 µM
[28] = second compound 3.16 µM, first compound 1 µM
[29] = second compound 3.16 µM, first compound 3.16 µM
[30] = second compound 3.16 µM, first compound 10 µM
[31] = second compound 10 µM, first compound 0.0316 µM
[32] = second compound 10 µM, first compound 0.1 µM
[33] = second compound 10 µM, first compound 0.316 µM
[34] = second compound 10 µM, first compound 1 µM
[35] = second compound 10 µM, first compound 3.16 µM
[36] = second compound 10 µM, first compound 10 µM
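Note: spheroids exposed to agents for one week before reading.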
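Throughout, for viability, T/C: 100% = DMSO vehicle control viability.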

COc1ncnc(C2CC2)c1-c1ncc2cnn(Cc3ccc(-c4nc(C(F)(F)F)cn4C(C)C)cc3)c2n1 + Cc1[nH]c2ccc(F)cc2c1-c1nc2c3cccnc3c3ncccc3c2[nH]1
IC50 (second compound 0.0316 µM): > 10000 nM | IC50 (second compound 0.1 µM): > 10000 nM | IC50 (second compound 0.316 µM): > 10000 nM | IC50 (second compound 1 µM): > 10000 nM | IC50 (second compound 3.16 µM): > 10000 nM | IC50 (second compound 10 µM): > 10000 nM | viability, T/C [1]: 94% | viability, T/C [2]: 103% | viability, T/C [3]: 107% | viability, T/C [4]: 111% | viability, T/C [5]: 100% | viability, T/C [6]: 143% | viability, T/C [7]: 101% | viability, T/C [8]: 99.2% | viability, T/C [9]: 105% | viability, T/C [10]: 126% | viability, T/C [11]: 104% | viability, T/C [12]: 121% | viability, T/C [13]: 109% | viability, T/C [14]: 97.5% | viability, T/C [15]: 125% | viability, T/C [16]: 112% | viability, T/C [17]: 116% | viability, T/C [18]: 126% | viability, T/C [19]: 97.8% | viability, T/C [20]: 91.9% | viability, T/C [21]: 102% | viability, T/C [22]: 112% | viability, T/C [23]: 133% | viability, T/C [24]: 119% | viability, T/C [25]: 87.7% | viability, T/C [26]: 90.1% | viability, T/C [27]: 98.1% | viability, T/C [28]: 111% | viability, T/C [29]: 125% | viability, T/C [30]: 116% | viability, T/C [31]: 81.8% | viability, T/C [32]: 68.6% | viability, T/C [33]: 101% | viability, T/C [34]: 102% | viability, T/C [35]: 109% | viability, T/C [36]: 116%

C=CC(=O)N1CCN(c2nc(=O)n(-c3c(C)ccnc3C(C)C)c3nc(-c4c(O)cccc4F)c(F)cc23)C(C)C1 (stereo not drawn) + Cc1cnc(CNC(=O)c2c(=O)c3ccc(N4CCCN(C)CC4)nc3n3c2sc2ccccc23)cn1
IC50 (second compound 0.0316 µM): > 10000 nM | IC50 (second compound 0.1 µM): > 10000 nM | IC50 (second compound 0.316 µM): < 31.6 nM | IC50 (second compound 1 µM): < 31.6 nM | IC50 (second compound 3.16 µM): < 31.6 nM | IC50 (second compound 10 µM): < 31.6 nM | viability, T/C [1]: 81% | viability, T/C [2]: 70.8% | viability, T/C [3]: 84.4% | viability, T/C [4]: 79.2% | viability, T/C [5]: 77% | viability, T/C [6]: 72.2% | viability, T/C [7]: 60.3% | viability, T/C [8]: 55.3% | viability, T/C [9]: 56.1% | viability, T/C [10]: 57.3% | viability, T/C [11]: 61.5% | viability, T/C [12]: 52.9% | viability, T/C [13]: 36.6% | viability, T/C [14]: 32.1% | viability, T/C [15]: 33.7% | viability, T/C [16]: 46.9% | viability, T/C [17]: 49.1% | viability, T/C [18]: 32.1% | viability, T/C [19]: 21.5% | viability, T/C [20]: 20.2% | viability, T/C [21]: 19.7% | viability, T/C [22]: 26.2% | viability, T/C [23]: 21.7% | viability, T/C [24]: 19.3% | viability, T/C [25]: 22.8% | viability, T/C [26]: 17.6% | viability, T/C [27]: 19.9% | viability, T/C [28]: 20.5% | viability, T/C [29]: 25% | viability, T/C [30]: 18.4% | viability, T/C [31]: 18.4% | viability, T/C [32]: 18.5% | viability, T/C [33]: 20.9% | viability, T/C [34]: 18% | viability, T/C [35]: 13.7% | viability, T/C [36]: 15.8%

CC(C)n1c(=O)n(C)c2cnc3cc(F)c(-c4ccc(OCCCN5CCCCC5)nc4)cc3c21 + Cc1cnc(CNC(=O)c2c(=O)c3ccc(N4CCCN(C)CC4)nc3n3c2sc2ccccc23)cn1
IC50 (second compound 0.0316 µM): > 10000 nM | IC50 (second compound 0.1 µM): > 10000 nM | IC50 (second compound 0.316 µM): < 31.6 nM | IC50 (second compound 1 µM): < 31.6 nM | IC50 (second compound 3.16 µM): < 31.6 nM | IC50 (second compound 10 µM): < 31.6 nM | viability, T/C [1]: 60.1% | viability, T/C [2]: 53.2% | viability, T/C [3]: 70.5% | viability, T/C [4]: 56% | viability, T/C [5]: 76.2% | viability, T/C [6]: 74.9% | viability, T/C [7]: 44.2% | viability, T/C [8]: 60.9% | viability, T/C [9]: 62.2% | viability, T/C [10]: 54.1% | viability, T/C [11]: 49.7% | viability, T/C [12]: 56.6% | viability, T/C [13]: 31.7% | viability, T/C [14]: 31.4% | viability, T/C [15]: 42.6% | viability, T/C [16]: 40.4% | viability, T/C [17]: 36.7% | viability, T/C [18]: 41.7% | viability, T/C [19]: 20% | viability, T/C [20]: 22.5% | viability, T/C [21]: 19.5% | viability, T/C [22]: 20% | viability, T/C [23]: 22.1% | viability, T/C [24]: 26.8% | viability, T/C [25]: 19.1% | viability, T/C [26]: 17.9% | viability, T/C [27]: 19.6% | viability, T/C [28]: 21.1% | viability, T/C [29]: 24.6% | viability, T/C [30]: 20.4% | viability, T/C [31]: 17.7% | viability, T/C [32]: 19.4% | viability, T/C [33]: 18.9% | viability, T/C [34]: 20% | viability, T/C [35]: 21.1% | viability, T/C [36]: 21.8%

CC1COCCN1c1cc(C2(O)CC3CCC(C2)O3)c2cnn(-c3ccn[nH]3)c2n1 (stereo not drawn) + Cc1cnc(CNC(=O)c2c(=O)c3ccc(N4CCCN(C)CC4)nc3n3c2sc2ccccc23)cn1
IC50 (second compound 0.0316 µM): < 31.6 nM | IC50 (second compound 0.1 µM): < 31.6 nM | IC50 (second compound 0.316 µM): < 31.6 nM | IC50 (second compound 1 µM): < 31.6 nM | IC50 (second compound 3.16 µM): < 31.6 nM | IC50 (second compound 10 µM): < 31.6 nM | viability, T/C [1]: 23.8% | viability, T/C [2]: 11.8% | viability, T/C [3]: 15.9% | viability, T/C [4]: 13.4% | viability, T/C [5]: 18.2% | viability, T/C [6]: 8.84% | viability, T/C [7]: 23.1% | viability, T/C [8]: 13% | viability, T/C [9]: 11.2% | viability, T/C [10]: 13.4% | viability, T/C [11]: 15.3% | viability, T/C [12]: 8.46% | viability, T/C [13]: 23.8% | viability, T/C [14]: 14.9% | viability, T/C [15]: 12.8% | viability, T/C [16]: 14.5% | viability, T/C [17]: 15.3% | viability, T/C [18]: 5.38% | viability, T/C [19]: 18.4% | viability, T/C [20]: 13.7% | viability, T/C [21]: 11.1% | viability, T/C [22]: 12.1% | viability, T/C [23]: 10.5% | viability, T/C [24]: 4.62% | viability, T/C [25]: 14.2% | viability, T/C [26]: 13.5% | viability, T/C [27]: 10.7% | viability, T/C [28]: 9.81% | viability, T/C [29]: 6.85% | viability, T/C [30]: 0.99% | viability, T/C [31]: 14.2% | viability, T/C [32]: 13.7% | viability, T/C [33]: 10.6% | viability, T/C [34]: 8.67% | viability, T/C [35]: 6.98% | viability, T/C [36]: 0.78%
